Where two headings read alike, the source gives them in different places.
What was measured:
[1] = system: IL-23 stimulated Kit225 T cells (STAT-dependent luciferase reporter); experiment: Kit225 T cell assay, IL-23-stimulated STAT-dependent luciferase reporter; format: cell-based, human; conditions: 20 ng/mL human recombinant IL-23, 5-6 hours, read-out: IL-23 Kit225 Reporter (IC50)
Procedure: (§1) Kit225 T cells with a stably-integrated STAT-dependent luciferase reporter were plated in RPMI (Gibco) containing 10% heat-inactivated FBS (Gibco) and 100 U/mL PenStrep (Gibco). The cells were then stimulated with either 20 ng/mL human recombinant IL-23 or 200 U/mL human recombinant IFNα (PBL InterferonSource) for 5-6 hours. Luciferase expression was measured using the STEADY-GLO® Luciferase Assay System (Promega) according to the manufacturer's instructions. Inhibition data were calculated by comparison to no inhibitor control wells for 0% inhibition and non-stimulated control wells for 100% inhibition.

[2] = system: IFNα stimulated Kit225 T cells (STAT-dependent luciferase reporter); experiment: Kit225 T cell assay, IFNα-stimulated STAT-dependent luciferase reporter; format: cell-based, human; conditions: 200 U/mL human recombinant IFNα, 5-6 hours, read-out: IFNα Kit225 Reporter (IC50)
Procedure: as §1

Row | IC50 [1] | IC50 [2] | IC50 ([1]; KIT225) | IC50 ([2]; KIT225) | Structure (SMILES)
1 | 20 nM | 3.62 nM |  |  | CNC(=O)c1nnc(Nc2ccccn2)cc1Nc1cccc(-c2ncccn2)c1OC [Example 91]
2 | 40 nM | 30 nM |  |  | CNC(=O)c1cccc(Nc2cc(Nc3ccccn3)nnc2C(=O)NC)c1OC [Example 169]
3 | 30 nM | 9.16 nM |  |  | CNC(=O)c1nnc(Nc2cc(OC(C)C)ncn2)cc1Nc1cccc(-c2ncn(C)n2)c1OC [Example 98]
4 | 9.7 nM | 10 nM |  |  | CNC(=O)c1nnc(Nc2cc(C)nc(C)n2)cc1Nc1cccc(-c2cscn2)c1OC [Example 130]
5 | 150 nM | 260 nM |  |  | CNC(=O)c1nnc(Nc2cc(OC)ncn2)cc1Nc1ccccc1S(C)(=O)=O [Example 42]
6 | 40 nM | 20 nM |  |  | CNC(=O)c1nnc(NC(=O)C2CC2)cc1Nc1cccc(-c2ccn(C)n2)c1OC [Example 54]
7 | 290 nM | 260 nM |  |  | CNC(=O)c1nnc(Nc2cc(C)c(F)cn2)cc1Nc1cccc(-c2ccnn2C)c1OC [Example 197]
8 | 60 nM | 20 nM |  |  | CNC(=O)c1nnc(Nc2cc(N3CCN(CCO)CC3)nc(C)n2)cc1Nc1cccc(-c2ncn(C)n2)c1OC [Example 99]
9 | 40 nM | 30 nM |  |  | CNC(=O)c1nnc(NC(=O)C2CC2)cc1Nc1cccc(-c2cscn2)c1OC [Example 126]
10 | 20 nM | 9.97 nM |  |  | CNC(=O)c1nnc(Nc2cc(OC)ncn2)cc1Nc1cccc(-c2ncn(C)n2)c1OC [Example 88]
11 | 20 nM | 10 nM |  |  | CNC(=O)c1nnc(Nc2cc(C)c(F)cn2)cc1Nc1cccc(-c2nnc(C)o2)c1OC [Example 150]
12 | 130 nM | 30 nM |  |  | CNC(=O)c1nnc(Nc2cc(C)n(C)n2)cc1Nc1cccc(-c2nnc(C)o2)c1OC [Example 152]
13 | 3.83 nM | 1.4 nM |  |  | CNC(=O)c1nnc(Nc2cc(COC)ccn2)cc1Nc1cccc(-c2ncn(C)n2)c1OC [Example 135]
14 | 420 nM | 310 nM |  |  | CNC(=O)c1nnc(Nc2cc(OC(C)C)ncn2)cc1Nc1ccccc1S(C)(=O)=O [Example 45]
15 | 20 nM | 10 nM |  |  | CNC(=O)c1nnc(Nc2cc(C)n(C)n2)cc1Nc1cccc(-c2n[nH]c(C)n2)c1OC [Example 148]
16 | 540 nM | 80 nM |  |  | CCOc1ccnc(Nc2cc(Nc3ccccc3S(C)(=O)=O)c(C(=O)NC)nn2)c1 [Example 37]
17 | 30 nM | 30 nM |  |  | CNC(=O)c1nnc(NC(=O)C2CC2)cc1Nc1cccc(-c2cn(C)nn2)c1OC [Example 138]
18 | 20 nM | 10 nM |  |  | CNC(=O)c1nnc(Nc2cccc(C)n2)cc1Nc1ccccc1S(C)(=O)=O [Example 30]
19 | 7.01 nM | 5.45 nM |  |  | CNC(=O)c1nnc(Nc2cc(C)c(F)cn2)cc1Nc1cccc(-c2ncn(C)n2)c1OC [Example 56]
20 |  |  | 190 nM | 80 nM | [2H]C([2H])([2H])NC(=O)c1nnc(NC(=O)C2CC2)cc1Nc1cccc(-c2nc(C)nn2C)c1OC [Example 182]
21 | 30 nM | 20 nM |  |  | CCOc1ccnc(Nc2cc(Nc3cccc(-c4ncn(C)n4)c3OC)c(C(=O)NC)nn2)c1 [Example 127]
22 |  |  | 70 nM | 160 nM | [2H]C([2H])([2H])NC(=O)c1nnc(NC(=O)C2CC2)cc1Nc1cccc(-c2ccn(CC(C)(C)O)n2)c1OC [Example 196]
23 | 20 nM | 20 nM |  |  | CNC(=O)c1nnc(Nc2cc(C)c(F)cn2)cc1Nc1cccc(-c2cnn(C)c2)c1OC [Example 59]
24 | 30 nM | 10 nM |  |  | CNC(=O)c1nnc(Nc2ccccn2)cc1Nc1cccc(-c2ncnn2C)c1OC [Example 178]
25 | 20 nM | 8.59 nM |  |  | CNC(=O)c1nnc(Nc2ccccn2)cc1Nc1cccc(-c2ccn(C)n2)c1OC [Example 58]
26 | 8.03 nM | 3.81 nM |  |  | CNC(=O)c1nnc(Nc2cc(OC)ccn2)cc1Nc1cccc(-c2ncn(C)n2)c1OC [Example 133]
27 | 6.01 nM | 6.48 nM |  |  | CNC(=O)c1nnc(Nc2cc(C)nc(C)n2)cc1Nc1cccc(-c2cnn(C)c2)c1OC [Example 57]
28 | 20 nM | 6.04 nM |  |  | CNC(=O)c1nnc(NC(=O)C2CC2)cc1Nc1cccc(-c2cnn(C)n2)c1OC [Example 136]

Row | IC50 [1] | IC50 [2] | IC50 ([1]; KIT225) | IC50 ([2]; KIT225) | Structure (SMILES)
29 | 2.64 nM | 2.33 nM |  |  | CNC(=O)c1nnc(Nc2cc(C)nc(C)n2)cc1Nc1cccc(-c2ncccn2)c1OC [Example 121]
30 | 20 nM | 10 nM |  |  | CNC(=O)c1nnc(Nc2cc(C)c(F)cn2)cc1Nc1cccc(-c2cscn2)c1OC [Example 129]
31 | 30 nM | 20 nM |  |  | CNC(=O)c1nnc(Nc2cc(OC(C)C)nc(C)n2)cc1Nc1cccc(-c2ncn(C)n2)c1OC [Example 62]
32 | 10 nM | 20 nM |  |  | CS(=O)(=O)c1ccccc1Nc1cc(Nc2ccccn2)nnc1C(N)=O [Example 27]
33 |  |  | 40 nM | 20 nM | [2H]C([2H])([2H])NC(=O)c1nnc(NC(=O)C2CC2)cc1Nc1cccc(-c2nc(C)n(C)n2)c1OC [Example 181]
34 |  |  | 300 nM | 170 nM | [2H]C([2H])([2H])NC(=O)c1nnc(Nc2ccccn2)cc1Nc1cccc(C(=O)NCCOC)c1OC [Example 164]
35 | 140 nM | 80 nM |  |  | CNC(=O)c1nnc(Nc2cc(C#N)ccn2)cc1Nc1ccccc1S(C)(=O)=O [Example 25]
36 |  |  | 4.38 nM | 0.712 nM | CNC(=O)c1nnc(Nc2ccccn2)cc1Nc1cccc(-c2noc(C)n2)c1OC [Example 206]
37 | 100 nM | 20 nM |  |  | CNC(=O)c1nnc(NC(=O)C2CC2)cc1Nc1cccc(-c2nc(C)cs2)c1OC [Example 95]
38 | 60 nM | 90 nM |  |  | CNC(=O)c1nnc(Nc2cc(F)ccn2)cc1Nc1ccccc1S(C)(=O)=O [Example 9]
39 | 70 nM | 50 nM |  |  | CNC(=O)c1nnc(Nc2ccc(C(=O)OC)cn2)cc1Nc1ccccc1S(C)(=O)=O [Example 32]
40 | 210 nM | 40 nM |  |  | CNC(=O)c1nnc(Nc2cc(C(F)(F)F)ccn2)cc1Nc1ccccc1S(C)(=O)=O [Example 35]
41 | 130 nM | 90 nM |  |  | CNC(=O)c1nnc(Nc2cc(C)ncn2)cc1Nc1ccccc1S(C)(=O)=O [Example 8]
42 | 110 nM | 30 nM |  |  | CCc1ccnc(Nc2cc(Nc3ccccc3S(C)(=O)=O)c(C(=O)NC)nn2)c1 [Example 36]
43 |  |  | 40 nM | 30 nM | [2H]C([2H])([2H])NC(=O)c1nnc(NC(=O)C2CC2)cc1Nc1cccc(-c2c[nH]nn2)c1OC [Example 192]
44 | 190 nM | 170 nM |  |  | CNC(=O)c1nnc(Nc2cc(CO)ccn2)cc1Nc1ccccc1S(C)(=O)=O [Example 34]
45 |  |  | 140 nM | 50 nM | CNC(=O)c1nnc(Nc2ccccn2)cc1Nc1cccc(-c2ncn(C)n2)c1SC [Example 205]
46 | 30 nM | 40 nM |  |  | CNC(=O)c1nnc(Nc2cc(C)n(C)n2)cc1Nc1cccc(-c2c[nH]nn2)c1OC [Example 193]
47 | 60 nM | 50 nM |  |  | CNC(=O)c1nnc(Nc2cc(C)c(C#N)cn2)cc1Nc1ccccc1S(C)(=O)=O [Example 26]
48 | 210 nM | 150 nM |  |  | C#Cc1cccc(Nc2cc(NC(=O)C3CC3)nnc2C(=O)NC)c1OC [Example 139]
49 |  |  | 80 nM | 30 nM | [2H]C([2H])([2H])NC(=O)c1nnc(NC(=O)C2CC2)cc1Nc1cccc(-c2cc(C)[nH]n2)c1OC [Example 200]
50 | 70 nM | 20 nM |  |  | CNC(=O)c1nnc(Nc2ccc(F)cn2)cc1Nc1cccc(-c2ccccn2)c1OC [Example 77]
51 | 60 nM | 20 nM |  |  | CNC(=O)c1nnc(Nc2ccccn2)cc1Nc1cccc(-n2cccn2)c1OC [Example 65]
52 | 230 nM | 390 nM |  |  | CNC(=O)c1nnc(Nc2ccccn2)cc1Nc1cccc(C(=O)NCCCO)c1OC [Example 170]
53 | 170 nM | 50 nM |  |  | CNC(=O)c1nnc(NC(=O)C2CC2)cc1Nc1cccc(-c2nnc(C)o2)c1OC [Example 149]
54 | 100 nM | 70 nM |  |  | CNC(=O)c1nnc(NC(=O)C2CC2)cc1Nc1cccc(-c2ncn(C)n2)c1OC [Example 67]
55 | 200 nM | 60 nM |  |  | CCc1cc(Nc2cc(Nc3ccccc3S(C)(=O)=O)c(C(=O)NC)nn2)ncn1 [Example 46]

Row | Structure (SMILES) | IC50 [1] | IC50 [2] | IC50 ([1]; KIT225) | IC50 ([2]; KIT225)
56 | CNC(=O)c1nnc(NC(=O)C2CC2)cc1Nc1ccccc1S(C)(=O)=O [Example 12] | 230 nM | 100 nM |  | 
57 | CS(=O)(=O)c1ccccc1Nc1cc(Nc2ccc(F)cn2)nnc1C(N)=O [Example 2] | 140 nM | 50 nM |  | 
58 | CNC(=O)c1nnc(Nc2cc(C)c(C)cn2)cc1Nc1ccccc1S(C)(=O)=O [Example 20] | 20 nM | 20 nM |  | 

From patent US11021475B2, “Amide-substituted heterocyclic compounds useful as modulators of IL-12, IL-23 and/or IFN alpha responses” (Bristol-Myers Squibb Company, priority 2012, dated 2021)
